Measurements from patent US20240409585A1, “MACROCYCLIC IMMUNOMODULATORS” (priority 2021, published 2024).
Numbered stars: 1 amine (or outer) side, 2 acyl side, 3 side chain; on linkers, the order of the positions; unused ones are H or OH. Bridge positions count the residues as written; N and C are the ends. Square brackets hold non-standard residues; d marks the D form. Peptide text beside a SMILES is read from it. * marks the point of attachment. Bip(4'-COOH) = N[C@@H](Cc1ccc(-c2ccc(C(=O)O)cc2)cc1)C(=O)O; Bip(4'-NHAc) = CC(=O)Nc1ccc(-c2ccc(C[C@H](N)C(=O)O)cc2)cc1; X12 = O=C(NCc1cccc(C[C@H](N[*:1])C(=O)[*:2])c1)c1ccncc1; Phe(3-CF3) = N[C@@H](Cc1cccc(C(F)(F)F)c1)C(=O)O; X3 = CC(=O)NCc1cccc(C[C@H](N[*:1])C(=O)[*:2])c1; Ala(morpholin-4-yl) = N[C@@H](CN1CCOCC1)C(=O)O; Phe(4-CONH2) = NC(=O)c1ccc(C[C@H](N)C(=O)O)cc1; Phe(4-COOH) = N[C@@H](Cc1ccc(C(=O)O)cc1)C(=O)O; X4 = O=C([C@H](Cc1ccc2cc[nH]c2c1)N[*:1])[*:2]; Bip = N[C@@H](Cc1ccc(-c2ccccc2)cc1)C(=O)O; Phe(3-OMe) = COc1cccc(C[C@H](N)C(=O)O)c1; Phe(3-I) = N[C@@H](Cc1cccc(I)c1)C(=O)O; Phe(3-Me) = Cc1cccc(C[C@H](N)C(=O)O)c1; Val(3-OH) = CC(C)(O)[C@H](N)C(=O)O; Cha = N[C@@H](CC1CCCCC1)C(=O)O; Carboxymethyl = O=C(O)C*; NMeA = CN[C@@H](C)C(=O)O; Nle = CCCC[C@H](N)C(=O)O; Orn = NCCC[C@H](N)C(=O)O; Dab = NCC[C@H](N)C(=O)O

Legend:
[1] = target: T1, PE-labeled human PD-L1-Ig binding to Jurkat cell line over-expressing human PD-1 (Jurkat-PD-1) (Homo sapiens, UniProt Q15116); test: Jurkat-PD-1 Cell Binding High-Content Screening Assay (CBA): Method 2 (presence and absence of tween-20); conditions: Jurkat-PD-1 cells, PE-labeled PD-L1-Ig 20 nM, presence or absence of tween-20 not given
T1 construct: expressed in transfected cells; host or cells: Jurkat
Procedure: Jurkat-PD-1 Cell Binding High-Content Screening Assay (CBA): Method 2
Phycoerythrin (PE) was covalently linked to the Ig epitope tag of human PD-L1-Ig and fluorescently labeled PD-L1-Ig was used for binding studies with a Jurkat cell line over-expressing human PD-1 (Jurkat-PD-1). […] 100 nl of compound was added to cells followed by incubation at 37° C. for 2 hours. To interrogate potential issues with compound aggregation, compounds were tested in the presence and absence of tween-20 detergent. […] Then, 5 μl of PE-labeled PD-L1-Ig (20 nM final), diluted in DMEM supplemented with 10% fetal calf serum. […] Data was collected and processed using a Cell Insight NXT High Content Imager and associated software.

[2] = target: T1, PE-labeled human PD-L1-Ig binding to Jurkat cell line over-expressing human PD-1 (Jurkat-PD-1); test: Jurkat-PD-1 Cell Binding High-Content Screening Assay (CBA): Method 1; conditions: Jurkat-PD-1 cells, PE-labeled PD-L1-Ig
[3] = head μM, read-out: CBA Method 2 μM

T1 sequence (Q15116 25-288): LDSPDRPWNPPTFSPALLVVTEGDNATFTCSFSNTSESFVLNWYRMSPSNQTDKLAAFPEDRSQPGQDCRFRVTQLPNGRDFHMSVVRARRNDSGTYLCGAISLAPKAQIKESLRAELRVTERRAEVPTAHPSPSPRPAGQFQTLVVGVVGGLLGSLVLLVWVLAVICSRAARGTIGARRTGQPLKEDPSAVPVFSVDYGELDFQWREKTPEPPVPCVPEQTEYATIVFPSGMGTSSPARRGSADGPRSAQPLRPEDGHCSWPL

Row | SMILES | IC50 [1, 3] [µM] | IC50 ([2]; μM, read-out: CBA Method 1 μM) [µM] | IC50 ([1]; nM, read-out: CBA Method 2) [µM] | IC50 ([2]; nM, read-out: CBA Method 1) [µM]
1 | CC(C)C[C@H]1NC(=O)[C@H](C)N(C)C(=O)[C@H](CCC(N)=O)NC(=O)[C@H](Cc2ccc(-c3ccccc3)cc2)NC(=O)[C@H](Cc2ccc(C(=O)O)cc2)NC(=O)[C@H](Cc2cccc(C(F)(F)F)c2)NC(=O)[C@H](CC(=O)O)NC(=O)[C@H](Cc2ccc(OCC(=O)O)cc2)NC(=O)[C@H](CN2CCOCC2)NC(=O)CSC[C@@H](C(=O)N[C@@H](CCN)C(N)=O)NC(=O)[C@H](CCCN)NC(=O)[C@H](C(C)C)NC(=O)[C@H](CC2CCCCC2)NC(=O)[C@H](CCN)NC1=O [Example 5014] ({CH2CO}-[Ala(morpholin-4-yl)]Y(Carboxymethyl)D[Phe(3-CF3)][Phe(4-COOH)][Bip]Q[NMeA][dL][Dab][Cha]V[Orn]C[Dab]-NH2; thioether N-14) | 0.04 | 0.17 | – | –
2 | COc1cccc(C[C@@H]2NC(=O)[C@H](CCN)NC(=O)[C@@H](CC(C)C)NC(=O)[C@H](C)N(C)C(=O)[C@H](CCC(N)=O)NC(=O)[C@H](Cc3ccc(-c4ccccc4)cc3)NC(=O)[C@H](Cc3ccc(C(=O)O)cc3)NC(=O)[C@H](Cc3cccc(C)c3)NC(=O)[C@H](CC(=O)O)NC(=O)[C@H](Cc3ccc(OCC(=O)O)cc3)NC(=O)[C@H](CN3CCOCC3)NC(=O)CSC[C@@H](C(=O)N[C@@H](CCN)C(N)=O)NC(=O)[C@H](CCCN)NC(=O)[C@H](C(C)C)NC2=O)c1 [Example 5043] ({CH2CO}-[Ala(morpholin-4-yl)]Y(Carboxymethyl)D[Phe(3-Me)][Phe(4-COOH)][Bip]Q[NMeA][dL][Dab][Phe(3-OMe)]V[Orn]C[Dab]-NH2; thioether N-14) | 0.0098 | 0.0098 | – | –
3 | Cc1cccc(C[C@@H]2NC(=O)[C@H](CC(=O)O)NC(=O)[C@H](Cc3ccc(OCC(=O)O)cc3)NC(=O)[C@H](CN3CCOCC3)NC(=O)CSC[C@@H](C(=O)N[C@@H](CCN)C(N)=O)NC(=O)[C@H](CCCN)NC(=O)[C@H](C(C)C)NC(=O)[C@H](CC3CCCCC3)NC(=O)[C@H](CCN)NC(=O)[C@@H](CC(C)C)NC(=O)[C@H](C)N(C)C(=O)[C@H](CCC(N)=O)NC(=O)[C@H](Cc3ccc(-c4ccccc4)cc3)NC(=O)[C@H](Cc3ccc4cc[nH]c4c3)NC2=O)c1 [Example 5037] ({CH2CO}-[Ala(morpholin-4-yl)]Y(Carboxymethyl)D[Phe(3-Me)][X4][Bip]Q[NMeA][dL][Dab][Cha]V[Orn]C[Dab]-NH2; thioether N-14) | 0.0304 | 0.0138 | – | –
4 | CCCC[C@@H]1NC(=O)CSC[C@@H](C(=O)N[C@@H](CCN)C(N)=O)NC(=O)[C@H](CCC(=O)O)NC(=O)[C@H](C(C)C)NC(=O)[C@H](CC2CCCCC2)NC(=O)[C@H](CCN)NC(=O)[C@@H](CC(C)C)NC(=O)[C@H](C)N(C)C(=O)[C@H](Cc2ccc(OCC(=O)O)cc2)NC(=O)[C@H](Cc2ccc(-c3ccccc3)cc2)NC(=O)[C@H](Cc2ccc(OCC(=O)O)cc2)NC(=O)[C@H](Cc2cccc(C(F)(F)F)c2)NC(=O)[C@H](CC(=O)O)NC(=O)[C@H](Cc2ccc(-c3ccc(C(=O)O)cc3)cc2)NC1=O [Example 5074] ({CH2CO}-[Nle][Bip(4'-COOH)]D[Phe(3-CF3)]Y(Carboxymethyl)[Bip]Y(Carboxymethyl)[NMeA][dL][Dab][Cha]VEC[Dab]-NH2; thioether N-14) | 0.0267 | 0.0401 | – | –
5 | COC[C@@H]1NC(=O)CSC[C@@H](C(=O)N[C@@H](CCN)C(N)=O)NC(=O)[C@H](CCCN)NC(=O)[C@H](C(C)C)NC(=O)[C@H](CC2CCCCC2)NC(=O)[C@H](CCN)NC(=O)[C@@H](CC(C)C)NC(=O)[C@H](C)N(C)C(=O)[C@H](CCC(N)=O)NC(=O)[C@H](Cc2ccc(-c3ccccc3)cc2)NC(=O)[C@H](Cc2ccc(-c3ccc(C(=O)O)cc3)cc2)NC(=O)[C@H](Cc2cccc(C)c2)NC(=O)[C@H](CC(=O)O)NC(=O)[C@H](Cc2ccc(OCC(=O)O)cc2)NC1=O [Example 5057] ({CH2CO}-S(Me)Y(Carboxymethyl)D[Phe(3-Me)][Bip(4'-COOH)][Bip]Q[NMeA][dL][Dab][Cha]V[Orn]C[Dab]-NH2; thioether N-14) | 0.0106 | 0.0089 | – | –
6 | Cc1cccc(C[C@@H]2NC(=O)[C@H](CC(=O)O)NC(=O)[C@H](Cc3ccc(OCC(=O)O)cc3)NC(=O)[C@H](Cc3cccc(I)c3)NC(=O)CSC[C@@H](C(=O)N[C@@H](CCN)C(N)=O)NC(=O)[C@H](CCCN)NC(=O)[C@H](C(C)C)NC(=O)[C@H](CC3CCCCC3)NC(=O)[C@H](CCN)NC(=O)[C@@H](CC(C)C)NC(=O)[C@H](C)N(C)C(=O)[C@H](CCC(N)=O)NC(=O)[C@H](Cc3ccc(-c4ccccc4)cc3)NC(=O)[C@H](Cc3ccc(C(=O)O)cc3)NC2=O)c1 [Example 5036] ({CH2CO}-[Phe(3-I)]Y(Carboxymethyl)D[Phe(3-Me)][Phe(4-COOH)][Bip]Q[NMeA][dL][Dab][Cha]V[Orn]C[Dab]-NH2; thioether N-14) | 0.0031 | 0.0045 | – | –
7 | CC(=O)Nc1ccc(-c2ccc(C[C@@H]3NC(=O)[C@H](Cc4cccc(C(F)(F)F)c4)NC(=O)[C@H](CC(=O)O)NC(=O)[C@H](Cc4ccc(C(=O)O)cc4)NC(=O)[C@H](CC(C)C)NC(=O)CSC[C@@H](C(=O)N[C@@H](CCN)C(N)=O)NC(=O)[C@H](CCCN)NC(=O)[C@H](C(C)C)NC(=O)[C@H](CC4CCCCC4)NC(=O)[C@H](CCN)NC(=O)[C@@H](CC(C)C)NC(=O)[C@H](C)N(C)C(=O)[C@H](CCC(N)=O)NC(=O)[C@H](Cc4ccc(-c5ccccc5)cc4)NC3=O)cc2)cc1 [Example 5053] ({CH2CO}-L[Phe(4-COOH)]D[Phe(3-CF3)][Bip(4'-NHAc)][Bip]Q[NMeA][dL][Dab][Cha]V[Orn]C[Dab]-NH2; thioether N-14) | 0.0074 | 0.009 | – | –
8 | CCCC[C@@H]1NC(=O)CSC[C@@H](C(=O)N[C@@H](CCN)C(N)=O)NC(=O)[C@H](CO)NC(=O)[C@H](C(C)(C)O)NC(=O)[C@H](CC2CCCCC2)NC(=O)[C@H](CCN)NC(=O)[C@@H](CC(C)C)NC(=O)[C@H](C)N(C)C(=O)[C@H](Cc2ccc(C(N)=O)cc2)NC(=O)[C@H](Cc2ccc(-c3ccccc3)cc2)NC(=O)[C@H](Cc2ccc(-c3ccc(NC(C)=O)cc3)cc2)NC(=O)[C@H](Cc2cccc(C)c2)NC(=O)[C@H](CC(=O)O)NC(=O)[C@H](Cc2ccc(OCC(=O)O)cc2)NC1=O [Example 5069] ({CH2CO}-[Nle]Y(Carboxymethyl)D[Phe(3-Me)][Bip(4'-NHAc)][Bip][Phe(4-CONH2)][NMeA][dL][Dab][Cha][Val(3-OH)]SC[Dab]-NH2; thioether N-14) | 0.0131 | 0.0136 | – | –
9 | CC(C)C[C@H]1NC(=O)[C@H](C)N(C)C(=O)[C@H](CCC(N)=O)NC(=O)[C@H](Cc2ccc(-c3ccccc3)cc2)NC(=O)[C@H](Cc2cccc(CNC(=O)c3ccncc3)c2)NC(=O)[C@H](Cc2cccc(I)c2)NC(=O)[C@H](CC(=O)O)NC(=O)[C@H](Cc2ccc(OCC(=O)O)cc2)NC(=O)[C@H](CN2CCOCC2)NC(=O)CSC[C@@H](C(=O)N[C@@H](CCN)C(N)=O)NC(=O)[C@H](CCCN)NC(=O)[C@H](C(C)C)NC(=O)[C@H](CC2CCCCC2)NC(=O)[C@H](CCN)NC1=O [Example 5020] ({CH2CO}-[Ala(morpholin-4-yl)]Y(Carboxymethyl)D[Phe(3-I)][X12][Bip]Q[NMeA][dL][Dab][Cha]V[Orn]C[Dab]-NH2; thioether N-14) | – | – | 0.005 | 0.0058
10 | CC(=O)NCc1cccc(C[C@@H]2NC(=O)CSC[C@@H](C(=O)N[C@@H](CCN)C(N)=O)NC(=O)[C@H](CCCN)NC(=O)[C@H](C(C)C)NC(=O)[C@H](CC3CCCCC3)NC(=O)[C@H](CCN)NC(=O)[C@@H](CC(C)C)NC(=O)[C@H](C)N(C)C(=O)[C@H](CCC(N)=O)NC(=O)[C@H](Cc3ccc(-c4ccccc4)cc3)NC(=O)[C@H](Cc3ccc(C(=O)O)cc3)NC(=O)[C@H](Cc3cccc(C)c3)NC(=O)[C@H](CC(=O)O)NC(=O)[C@H](Cc3ccc(OCC(=O)O)cc3)NC2=O)c1 [Example 5033] ({CH2CO}-[X3]Y(Carboxymethyl)D[Phe(3-Me)][Phe(4-COOH)][Bip]Q[NMeA][dL][Dab][Cha]V[Orn]C[Dab]-NH2; thioether N-14) | 0.0033 | 0.0032 | – | –
11 | Cc1cccc(C[C@@H]2NC(=O)[C@H](CC(=O)O)NC(=O)[C@H](Cc3ccc(C(=O)O)cc3)NC(=O)[C@H](CN3CCOCC3)NC(=O)CSC[C@@H](C(=O)N[C@@H](CCN)C(N)=O)NC(=O)[C@H](CCCN)NC(=O)[C@H](C(C)C)NC(=O)[C@H](CC3CCCCC3)NC(=O)[C@H](CCN)NC(=O)[C@@H](CC(C)C)NC(=O)[C@H](C)N(C)C(=O)[C@H](CCC(N)=O)NC(=O)[C@H](Cc3ccc(-c4ccccc4)cc3)NC(=O)[C@H](Cc3ccc(-c4ccc(C(=O)O)cc4)cc3)NC2=O)c1 [Example 5059] ({CH2CO}-[Ala(morpholin-4-yl)][Phe(4-COOH)]D[Phe(3-Me)][Bip(4'-COOH)][Bip]Q[NMeA][dL][Dab][Cha]V[Orn]C[Dab]-NH2; thioether N-14) | 0.0033 | 0.0029 | – | –
